Experimental findings from ChEMBL document CHEMBL5647694, “Novel orally bioavailable EZH1/2 dual inhibitors with greater antitumor efficacy than an EZH2 selective inhibitor” (Cancer Sci, 2017) are described below.

The EC50 is the concentration that produces a half-maximal response. The term AUC(0-t) denotes the area under the concentration-time curve up to a stated or last time point. Higher therefore signals more exposure. As usually defined, the Cmax is the highest concentration seen after dosing.

Activity calls are given as the source filed them. The calls are words filed in the database; no cut-off is given here.

The test system of one data set is MV4-11. Description: Antiproliferative activity against human MV4-11 cells assessed as inhibition of cell growth. It is filed as functional, cell-based.
Another data set relates to RS4-11. Description: Antiproliferative activity against human RS4-11 cells assessed as inhibition of cell growth. The class given is functional, cell-based.
The nature of data set [1]: AUC (0 to 24 hrs) in BALB/c mouse at 40 mg/kg administered as single dose. The class given is ADME, organism-based. The settings on record: in vivo, route po.
Another data set relates to Mus musculus. In words: In vivo inhibition of EZH1/2 in FOX CHASE SCID C.B.17/Icr-scid/scid Jc1 mouse xenografted with human KARPAS-422 cells assessed as decrease in H3K27me3 level in tumor at 40 to 160 mg/kg, po BID for 16 days and measured 1 day after cessation of drug dosing. The class given is functional, organism-based. The settings on record: dose lower 40.0 mg/kg, dose upper […], time 16.0 day. On the technique in general: A xenograft is tissue or cells of one species grown in another, often human tumour cells in immunodeficient mice.

Data set [2] has as its system KARPAS-422. In words: Antitumor activity against human KARPAS-422 cells xenografted in FOX CHASE SCID C.B.17/Icr-scid/scid Jc1 mouse assessed as inhibition of tumor growth at 160 mg/kg, po BID for 16 days. It is filed as functional, organism-based. The settings on record: time 16.0 day.
Data set [3] relates to KARPAS-422. In words: Antitumor activity against human KARPAS-422 cells xenografted in FOX CHASE SCID C.B.17/Icr-scid/scid Jc1 mouse assessed as inhibition of tumor growth administered orally BID for 16 days. The class given is functional. The settings on record: dose lower 40.0 mg/kg, dose upper […], route po, time 16.0 day.
A short description of data set [4]: Cmax in BALB/c mouse at 40 mg/kg administered as single dose. The class given is ADME, organism-based. As to conditions: in vivo, route po.
In a further data set the test system is G-401. In words: Antitumor activity against human G-401 cells xenografted in female CAnN.Cg-Foxn1nu/CrlCrljFoxn1nu/Foxn1nu mouse assessed as suppression of tumor growth at 50 mg/kg, po qd for 12 days. It is filed as functional, organism-based. The settings on record: time 12.0 day.
The test system of data set [5] is NCI-N87. Description: Antitumor activity against human NCI-N87 cells xenografted in female CAnN.Cg-Foxn1nu/CrlCrljFoxn1nu/Foxn1nu mouse assessed as tumor regression at 50 mg/kg, po qd for 28 days and measured for 40 days after drug dosing cessation. The settings on record: time 28.0 day. It is filed as functional, organism-based.
For data set [6], the system named is NCI-N87. Description: Antitumor activity against human NCI-N87 cells xenografted in female CAnN.Cg-Foxn1nu/CrlCrljFoxn1nu/Foxn1nu mouse assessed as tumor regression at 50 mg/kg, po qd for 28 days. It is filed as functional, organism-based. The settings on record: time 28.0 day.

Regarding `CCCc1cc(C)[nH]c(=O)c1CNC(=O)c1cc(-c2ccc(N3CCN(C(C)C)CC3)nc2)cc2c1cnn2C(C)C`, the EC50 in the data set with MV4-11 worked out at 525 nM; in the data set on RS4-11 it was 1960 nM.
Compound `CCN1CCN(c2ccc(-c3cc(C(=O)NCc4c(C)cc(C)[nH]c4=O)c(C)c4c3O[C@](C)(CN3CCOCC3)O4)cn2)CC1` yielded an AUC(0-t) in [1] of 45 µM·h. Further, the inhibition result in the data set with Mus musculus was “Active”. Further, the outcome in the data set on KARPAS-422 [2] was Active. In the data set on KARPAS-422 [3], the Activity result is “Dose-Dependent Effect”. In [4], this compound gave a Cmax of 6 µM.
As to `Cc1cc(C)c(CNC(=O)c2cc(Br)c3c(c2C)OC(C)(C2CCC(N(C)C)CC2)O3)c(=O)[nH]1` (stereo not given), the outcome with G-401 and with NCI-N87 [5] was Active. In addition, the outcome with NCI-N87 [6] was inactive.
